Results reported in US11524966B1 (Valo Early Discovery, Inc., priority 2017, dated 2022).

Molecular target: T1, USP28 (USP28-5(1-1077)-TEV-6*His; LifeSensors) (Homo sapiens, UniProt Q96RU2)
T1 construct: construct USP28 (USP28-5(1-1077)-TEV-6*His; LifeSensors); TEV cleavage site (C); 6xHis (C); purchased LifeSensors
T1 sequence (Q96RU2 1-1077): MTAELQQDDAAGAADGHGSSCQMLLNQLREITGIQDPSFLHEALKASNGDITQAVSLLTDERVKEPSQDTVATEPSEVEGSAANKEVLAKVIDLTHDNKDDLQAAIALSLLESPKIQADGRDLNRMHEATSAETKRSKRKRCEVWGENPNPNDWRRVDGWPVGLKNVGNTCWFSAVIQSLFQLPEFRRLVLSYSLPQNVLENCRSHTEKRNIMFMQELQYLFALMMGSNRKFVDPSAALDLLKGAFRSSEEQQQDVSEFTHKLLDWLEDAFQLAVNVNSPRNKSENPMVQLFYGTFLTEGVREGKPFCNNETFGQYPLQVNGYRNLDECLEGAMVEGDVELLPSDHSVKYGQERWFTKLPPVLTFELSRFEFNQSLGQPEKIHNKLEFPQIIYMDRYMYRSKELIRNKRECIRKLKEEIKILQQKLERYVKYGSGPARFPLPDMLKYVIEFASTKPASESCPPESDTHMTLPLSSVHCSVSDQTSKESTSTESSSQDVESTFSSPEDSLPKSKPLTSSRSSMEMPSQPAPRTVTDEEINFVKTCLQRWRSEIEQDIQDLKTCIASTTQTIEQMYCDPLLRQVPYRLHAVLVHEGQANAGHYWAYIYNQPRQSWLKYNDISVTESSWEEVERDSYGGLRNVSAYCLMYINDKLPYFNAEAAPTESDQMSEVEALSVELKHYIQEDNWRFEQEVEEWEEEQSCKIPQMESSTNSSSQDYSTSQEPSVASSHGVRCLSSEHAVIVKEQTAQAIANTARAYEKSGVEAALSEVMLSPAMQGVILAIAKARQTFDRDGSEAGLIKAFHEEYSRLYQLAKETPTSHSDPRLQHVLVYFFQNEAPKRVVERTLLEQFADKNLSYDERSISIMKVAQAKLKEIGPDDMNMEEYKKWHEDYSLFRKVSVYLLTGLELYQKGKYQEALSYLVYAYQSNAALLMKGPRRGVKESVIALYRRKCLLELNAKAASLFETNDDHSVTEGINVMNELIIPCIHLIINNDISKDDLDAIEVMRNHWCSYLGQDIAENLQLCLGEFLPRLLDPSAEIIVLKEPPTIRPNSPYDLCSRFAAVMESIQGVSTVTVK
Test: Ubiquitin-Rhodamine 110 Assay for USP28 Activity, Example A-1(b)
Assay type: biochemical
Conditions: Ubiquitin-Rhodamine 110 assay, Example A-1(b)
Procedure, shortened: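 Single-point screening used 10 μM compound with 90 min room-temperature incubation; follow-up dose-responses (25 μM top, 3-fold) used 75 pM USP28 1-1077 construct, 30 min compound preincubation, 25 nM Ub-Rh110, 20 min reaction, citric acid quench. Rh110 fluorescence normalised to no-enzyme and DMSO controls; IC50 from 4-parameter logistic fit.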

Structure (SMILES) | USP28 A-1(b) IC50 range
Cc1ccc2c(N)c(C(=O)N[C@H]3COc4cc(N5C[C@@H](F)[C@@H](N)C5)ccc4C3)sc2n1 (single isomer, unassigned) [Example 3-6] | ++ (0.2-2 μM)
Cc1ccc2c(N)c(C(=O)N[C@H]3COc4cc(N5C[C@@H](N)[C@@H](F)C5)ccc4C3)sc2n1 (single isomer, unassigned) [Example 3-5] | +++ (0.05-0.2 μM)
